We go through one molecule from patent US4321196A, “Bis-esters of methanediol with acetonides of ampicillin or amoxicillin and penicillanic acid 1,1-dioxide” (Pfizer Inc., priority 1981, dated 1982).

The series can be described thus: Serum half-life comparison of Compound I with Compound II in fasted rats, and general statements on absorption and half-life. The conditions noted are these: 20 mg/kg oral, versus Compound II (Y=H). Type of series: in vivo. As for the experimental part:
Since the object of the present invention is to provide a single well-absorbed source of ampicillin/amoxicillin and penicillanic acid 1,1-dioxide in serum, the compounds of the present invention are also evaluated by determination of the serum levels of these derived compounds in experimental animals, such as laboratory rats. The serum level results in fasted rats following the oral administration of 20 mg./kg. of 6'-(2,2-dimethyl-4-phenyl-5-imidazolidinon-1-yl)-penicillanoyloxymethyl penicillanate 1,1-dioxide (I, Y=H) are shown in Table I. In this test, 6'-(2-amino-2-phenylacetamido)penicillanoyloxymethyl penicillanate 1,1-dioxide (II, Y=H) at the same oral dosage has been used as control. The blood level of ampicillin was determined by standard plate bioassay methods, using Sarcina lutea 07A001 on Seed agar. For determination of penicillanic acid 1,1-dioxide, Pasturella 59B010 on MH agar was employed. It will be noted there is an approximately 50% improvement in the half-life of Compound I (Y=H) over Compound II (Y=H).

Take `CC1(C)S[C@@H]2[C@H](N3C(=O)[C@@H](c4ccccc4)NC3(C)C)C(=O)N2[C@H]1C(=O)OCOC(=O)[C@@H]1N2C(=O)C[C@H]2S(=O)(=O)C1(C)C` [Compound I (Y = H), 6'-(2,2-Dimethyl-4-phenyl-5-imidazolidinon-1-yl)-penicillanoyloxymethyl Penicillanate 1,1-Dioxide]: the “Improvement in the half-life over Compound II (Y=H)” value is “approximately 50%”.
